Experimental data as given in paper PMC10388311, “Innovative Strategy toward Mutant CFTR Rescue in Cystic Fibrosis: Design and Synthesis of Thiadiazole Inhibitors of the E3 Ligase RNF5” (Journal of Medicinal Chemistry, 2023).

Target: F508del-CFTR in CFBE41o– cells (Homo sapiens, UniProt Q99942)
Test: HS-YFP microfluorimetric assay of F508del-CFTR rescue (corrector activity)
Format: cell-based
Conditions: CFBE41o– cells co-expressing F508del-CFTR and HS-YFP, 24 h treatment, Figure 5
Description: As a primary screen, the new thiadiazole derivatives 1–46 (Table 1) were tested for their ability to rescue the F508del-CFTR trafficking defect in CFBE41o^– cells, stably co-expressing F508del-CFTR and the HS-YFP (Figure 5). This cell line has been extensively used by our group, in combination with the microfluorimetric assay based on the HS-YFP, to identify and characterize many CFTR correctors.[39],[47] This assay relies on the hypothesis that RNF5 inhibition results in increased mutant CFTR processing and activity. Therefore, it can easily identify putative RNF5 inhibitors, but not other types of RNF5-binding compounds that could have no effect or have a negative effect on CFTR function, such as RNF5 activators (see analog-1). Thus, we opted for this assay as our primary aim was the identification of RNF5 inhibitors as a possible therapeutic strategy in CF. Twenty-four hours after seeding on 96-well plates, CFBE41o^– cells stably expressing F508del-CFTR and the HS-YFP were treated with test compounds at the desired concentration, one compound per well. Cells treated with vehicle alone (DMSO) and with corrector VX-809 (1 μM), respectively, served as negative and positive controls. At the time of the assay, cells were washed with PBS containing (in […]) 137 NaCl, 2.7 KCl, 8.1 Na2HPO4, 1.5 KH2PO4, 1 CaCl2, and 0.5 MgCl2. Cells were then incubated for 25 min with […] of PBS plus forskolin (20 μM) and VX-770 (1 μM) to maximally stimulate F508del-CFTR. Cells were then transferred to a microplate reader (FluoStar Galaxy; BMG Labtech, Offenburg, Germany) for CFTR activity determination. The plate reader was equipped with high-quality excitation (HQ500/20X: 500 ± 10 nm) and emission (HQ535/30M: 535 ± 15 nm) filters for YFP (Chroma Technology). Each assay comprised a continuous 14 s fluorescence reading and 2 s before and 12 s after injection of […] of an iodide-containing solution (PBS with Cl^– replaced by I^–; final I^– concentration […]). Data were normalized to the initial background-subtracted fluorescence. To determine the I^– influx rate, the final 11 s of the data for each well was fitted with an exponential function to extrapolate initial slope (dF/dt). Reproducibility of results was confirmed by performing three independent experiments. CFBE41o^– cells co-expressing F508del-CFTR and the HS-YFP were reverse-transfected with 50 nM (final concentration) siRNAs (Stealth, Life Technologies) in the presence of lipofectamine 2000 as a transfection agent. The following day, the medium was changed, and the cells were incubated at 37 °C for additional 24 h treated with test compounds at the desired concentration, prior to processing the cells for the YFP-based functional assay.

Chain of F508del-CFTR in CFBE41o– cells (Q99942 2-180): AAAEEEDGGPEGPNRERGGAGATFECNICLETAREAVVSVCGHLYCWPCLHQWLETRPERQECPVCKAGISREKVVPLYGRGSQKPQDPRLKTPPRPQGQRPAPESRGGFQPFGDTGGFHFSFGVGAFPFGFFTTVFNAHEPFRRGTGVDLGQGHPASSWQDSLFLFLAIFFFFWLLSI
Chain of F508del-CFTR in CFBE41o– cells (P13569 with tags, fused parts or gaps DEL508-508 partner): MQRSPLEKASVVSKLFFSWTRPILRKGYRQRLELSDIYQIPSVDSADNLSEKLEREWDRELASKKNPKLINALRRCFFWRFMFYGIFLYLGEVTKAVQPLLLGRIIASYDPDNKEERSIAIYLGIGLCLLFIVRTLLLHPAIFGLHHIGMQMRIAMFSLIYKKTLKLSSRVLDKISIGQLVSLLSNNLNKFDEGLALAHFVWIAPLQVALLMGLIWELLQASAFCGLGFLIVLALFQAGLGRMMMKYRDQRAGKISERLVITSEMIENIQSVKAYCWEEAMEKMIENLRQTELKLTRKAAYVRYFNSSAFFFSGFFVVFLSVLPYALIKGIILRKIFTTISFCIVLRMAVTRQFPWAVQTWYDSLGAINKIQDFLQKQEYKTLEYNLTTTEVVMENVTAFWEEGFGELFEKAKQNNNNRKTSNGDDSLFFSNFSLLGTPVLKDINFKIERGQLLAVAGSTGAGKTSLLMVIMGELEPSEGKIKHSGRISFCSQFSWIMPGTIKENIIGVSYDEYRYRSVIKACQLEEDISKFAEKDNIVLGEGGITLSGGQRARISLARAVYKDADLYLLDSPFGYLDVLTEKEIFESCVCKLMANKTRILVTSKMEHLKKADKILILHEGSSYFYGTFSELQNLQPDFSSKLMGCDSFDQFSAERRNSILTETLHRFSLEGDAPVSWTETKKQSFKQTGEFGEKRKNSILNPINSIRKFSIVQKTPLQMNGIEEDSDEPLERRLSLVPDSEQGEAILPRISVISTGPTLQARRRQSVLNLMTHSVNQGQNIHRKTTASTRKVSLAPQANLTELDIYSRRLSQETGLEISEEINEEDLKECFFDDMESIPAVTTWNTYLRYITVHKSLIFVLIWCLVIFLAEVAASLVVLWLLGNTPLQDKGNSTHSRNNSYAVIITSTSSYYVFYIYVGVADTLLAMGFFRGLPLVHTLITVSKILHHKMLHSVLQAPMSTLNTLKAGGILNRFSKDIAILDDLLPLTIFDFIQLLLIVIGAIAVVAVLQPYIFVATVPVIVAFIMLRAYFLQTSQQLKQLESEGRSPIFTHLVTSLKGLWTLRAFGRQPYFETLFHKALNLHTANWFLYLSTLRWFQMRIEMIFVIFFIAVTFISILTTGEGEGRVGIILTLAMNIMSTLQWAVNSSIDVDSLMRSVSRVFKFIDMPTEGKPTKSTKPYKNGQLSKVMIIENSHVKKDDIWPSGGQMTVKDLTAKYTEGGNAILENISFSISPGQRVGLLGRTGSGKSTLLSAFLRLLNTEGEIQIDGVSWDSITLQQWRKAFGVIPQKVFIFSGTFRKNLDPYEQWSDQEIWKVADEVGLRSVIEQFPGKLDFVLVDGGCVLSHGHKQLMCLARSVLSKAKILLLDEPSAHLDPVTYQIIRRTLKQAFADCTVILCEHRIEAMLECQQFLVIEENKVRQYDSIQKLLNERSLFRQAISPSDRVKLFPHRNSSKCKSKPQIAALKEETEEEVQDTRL

Compound | F508del-CFTR corrector activity compared with inh-2 (CFTR activity, primary screen)
Cc1cccc(Cn2c(C)ns/c2=N\C(=N\c2ccccc2)c2ccccc2)c1 [Compound 14, (E)-N-((Z)-3-Methyl-4-(3-methylbenzyl)-1,2,4-thiadiazol-5(4H)-ylidene)-N′-phenylbenzimidamide] | did not affect the activity
Cc1ns/c(=N\C(=N\c2ccccc2)c2ccccc2)n1CCCc1ccccc1 [Compound 5, (E)-N-((Z)-3-Methyl-4-(3-phenylpropyl)-1,2,4-thiadiazol-5(4H)-ylidene)-N′-phenylbenzimidamide] | devoid of significant F508del-CFTR corrector activity
COc1ccc(Cn2c(C)ns/c2=N\C(=N\c2ccccc2)c2ccccc2)cc1 [Compound 7, (E)-N-((Z)-4-(4-Methoxybenzyl)-3-methyl-1,2,4-thiadiazol-5(4H)-ylidene)-N′-phenylbenzimidamide] | reduced potency
Cc1ns/c(=N\C(=N\c2ccccc2)c2ccccc2)n1Cc1cccc(F)c1 [Compound 23, (E)-N-((Z)-4-(3-Fluorobenzyl)-3-methyl-1,2,4-thiadiazol-5(4H)-ylidene)-N′-phenylbenzimidamide] | did not affect the activity
Cc1ns/c(=N\C(=N\c2ccccc2)c2ccccc2)n1Cc1ccccc1Cl [Compound 28, (E)-N-((Z)-4-(2-Chlorobenzyl)-3-methyl-1,2,4-thiadiazol-5(4H)-ylidene)-N′-phenylbenzimidamide] | comparable activity to the unsubstituted original hit inh-2
Cc1ns/c(=N\C(=N\c2ccccc2)c2ccccc2)n1Cc1ccc(Cl)cc1 [Compound 10, (E)-N-((Z)-4-(4-Chlorobenzyl)-3-methyl-1,2,4-thiadiazol-5(4H)-ylidene)-N′-phenylbenzimidamide] | maintained the activity unaltered
CCOc1cccc(Cn2c(C)ns/c2=N\C(=N\c2ccccc2)c2ccccc2)c1 [Compound 19, (E)-N-((Z)-4-(3-Ethoxybenzyl)-3-methyl-1,2,4-thiadiazol-5(4H)-ylidene)-N′-phenylbenzimidamide] | did not affect the activity
Cc1ns/c(=N\C(=N\c2ccccc2)c2ccccc2)n1Cc1ccc(N)cc1 [Compound 13, (E)-N-((Z)-4-(4-Aminobenzyl)-3-methyl-1,2,4-thiadiazol-5(4H)-ylidene)-N′-phenylbenzimidamide] | reduced potency
Cc1ns/c(=N\C(=N\c2ccccc2)c2ccccc2)n1Cc1cccc(N)c1 [Compound 20, (E)-N-((Z)-4-(3-Aminobenzyl)-3-methyl-1,2,4-thiadiazol-5(4H)-ylidene)-N′-phenylbenzimidamide] | decreased potency
Cc1ccc(Cn2c(C)ns/c2=N\C(=N\c2ccccc2)c2ccccc2)cc1 [Compound 6, (E)-N-((Z)-3-Methyl-4-(4-methylbenzyl)-1,2,4-thiadiazol-5(4H)-ylidene)-N′-phenylbenzimidamide] | maintained the activity unaltered
Cc1ns/c(=N\C(=N\c2ccccc2)c2ccccc2)n1Cc1ccc(O)cc1 [Compound 8, (E)-N-((Z)-4-(4-Hydroxybenzyl)-3-methyl-1,2,4-thiadiazol-5(4H)-ylidene)-N′-phenylbenzimidamide] | reduced potency
Cc1ns/c(=N\C(=N\c2ccccc2)c2ccccc2)n1CCc1ccccc1 [Compound 4, (E)-N-((Z)-3-Methyl-4-phenethyl-1,2,4-thiadiazol-5(4H)-ylidene)-N′-phenylbenzimidamide] | devoid of significant F508del-CFTR corrector activity
Cc1ns/c(=N\C(=N\c2ccccc2)c2ccccc2)n1Cc1cccc(N(C)C)c1 [Compound 22, (E)-N-((Z)-4-(3-(Dimethylamino)benzyl)-3-methyl-1,2,4-thiadiazol-5(4H)-ylidene)-N′-phenylbenzimidamide] | did not affect the activity
Cc1ns/c(=N\C(=N\c2ccccc2)c2ccccc2)n1Cc1cccc(OC(C)C)c1 [Compound 18, (E)-N-((Z)-4-(3-Isopropoxybenzyl)-3-methyl-1,2,4-thiadiazol-5(4H)-ylidene)-N′-phenylbenzimidamide] | decreased potency

The remaining lines, values ahead:

F508del-CFTR corrector activity compared with inh-2 (CFTR activity, primary screen) | Compound
slight increase in activity | COc1ccccc1Cn1c(C)ns/c1=N\C(=N\c1ccccc1)c1ccccc1 [Compound 27, (E)-N-((Z)-4-(2-Methoxybenzyl)-3-methyl-1,2,4-thiadiazol-5(4H)-ylidene)-N′-phenylbenzimidamide]
inactive compounds | COCCc1ccnc(/N=c2\snc(C)n2Cc2ccccc2)c1 [Compound 43, (Z)-4-Benzyl-N-(4-(2-methoxyethyl)pyridin-2-yl)-3-methyl-1,2,4-thiadiazol-5(4H)-imine]
abolished any corrector activity | Cc1nn(Cc2ccccc2)/c(=N/C(=N/c2ccccc2)c2ccccc2)s1 [Compound 44, (E)-N-((Z)-3-Benzyl-5-methyl-1,3,4-thiadiazol-2(3H)-ylidene)-N′-phenylbenzimidamide]
inactive analogs | Cc1cccc(/N=C(/N=c2\snc(C)n2Cc2ccccc2)c2ccccc2)c1 [Compound 37, (E)-N-((Z)-4-Benzyl-3-methyl-1,2,4-thiadiazol-5(4H)-ylidene)-N′-(m-tolyl)benzimidamide]
abolished any corrector activity | c1ccc(Cn2ncs/c2=N\C(=N\c2ccccc2)c2ccccc2)cc1 [Compound 45, (E)-N-((Z)-3-Benzyl-1,3,4-thiadiazol-2(3H)-ylidene)-N′-phenylbenzimidamide]
drop of activity | Cc1ns/c(=N\C(=N\c2ccccc2)c2ccco2)n1Cc1ccccc1 [Compound 36, (E)-N-((Z)-4-Benzyl-3-methyl-1,2,4-thiadiazol-5(4H)-ylidene)-N′-phenylfuran-2-carboximidamide]
detrimental effect | Cc1ns/c(=N\C(=N\c2ccccc2)c2ccccc2)n1Cc1ccccc1C(F)(F)F [Compound 26, (E)-N-((Z)-3-Methyl-4-(2-(trifluoromethyl)benzyl)-1,2,4-thiadiazol-5(4H)-ylidene)-N′-phenylbenzimidamide]
increased activity | Cc1ns/c(=N\C(=N\c2ccccc2)c2ccccc2)n1Cc1cccc(Cl)c1 [Compound 24, (E)-N-((Z)-4-(3-Chlorobenzyl)-3-methyl-1,2,4-thiadiazol-5(4H)-ylidene)-N′-phenylbenzimidamide]
inactive analogs | Cc1ns/c(=N\C(=N\C2CCCCC2)c2ccccc2)n1Cc1ccccc1 [Compound 39, (E)-N-((Z)-4-Benzyl-3-methyl-1,2,4-thiadiazol-5(4H)-ylidene)-N′-cyclohexylbenzimidamide]
drop of activity | Cc1ns/c(=N\C(=N\c2ccccc2)c2cccnc2)n1Cc1ccccc1 [Compound 35, (E)-N-((Z)-4-Benzyl-3-methyl-1,2,4-thiadiazol-5(4H)-ylidene)-N′-phenylnicotinimidamide]
inactive analogs | Cc1ns/c(=N\C(=N\c2cccnc2)c2ccccc2)n1Cc1ccccc1 [Compound 41, (E)-N-((Z)-4-Benzyl-3-methyl-1,2,4-thiadiazol-5(4H)-ylidene)-N′-(pyridin-3-yl)benzimidamide]
abolished any corrector activity | c1ccc(Cn2ccs/c2=N\C(=N\c2ccccc2)c2ccccc2)cc1 [Compound 46, (E)-N-((Z)-3-Benzylthiazol-2(3H)-ylidene)-N′-phenylbenzimidamide]
inactive analogs | Cc1ns/c(=N\C(=N\Cc2ccccc2)c2ccccc2)n1Cc1ccccc1 [Compound 38, (E)-N′-Benzyl-N-((Z)-4-benzyl-3-methyl-1,2,4-thiadiazol-5(4H)-ylidene)benzimidamide]
